Measurements: patent publication US12139480B2, “5-thiazolecarboxamide kinase inhibitor and uses thereof” (iOmx Therapeutics AG, priority 2018, dated 2024)
Like-named read-outs stand apart in the source and are kept apart here.

What was measured:
FGR = target: T1, FGR (Homo sapiens, UniProt P09769); test: single-point (1 uM) inhibition assay (ProQinase Kinase Profiler); type: biochemical; details: 1 uM compound, read-out: % residual activity class (FIG. 3)
T1 construct: purchased ProQinase

FRK = target: T2, FRK (Homo sapiens, UniProt P42685); test: as above; type: biochemical; details: 1 uM compound, read-out: % residual activity class (FIG. 3)
T2 construct: purchased ProQinase

JAK1 aa583-1154 wt = target: T3, JAK1 aa583-1154 wt (Homo sapiens, UniProt P23458); test: as above; type: biochemical
T3 construct: JAK1 aa583-1154 wt; purchased ProQinase, Freiburg, Germany (Kinase Profiler panel)

BLK = target: T4, BLK (Homo sapiens, UniProt P51451); test: as above; type: biochemical; details: 1 uM compound, read-out: % residual activity class (FIG. 3)
T4 construct: purchased ProQinase
T4 sequence (P51451 whole entry): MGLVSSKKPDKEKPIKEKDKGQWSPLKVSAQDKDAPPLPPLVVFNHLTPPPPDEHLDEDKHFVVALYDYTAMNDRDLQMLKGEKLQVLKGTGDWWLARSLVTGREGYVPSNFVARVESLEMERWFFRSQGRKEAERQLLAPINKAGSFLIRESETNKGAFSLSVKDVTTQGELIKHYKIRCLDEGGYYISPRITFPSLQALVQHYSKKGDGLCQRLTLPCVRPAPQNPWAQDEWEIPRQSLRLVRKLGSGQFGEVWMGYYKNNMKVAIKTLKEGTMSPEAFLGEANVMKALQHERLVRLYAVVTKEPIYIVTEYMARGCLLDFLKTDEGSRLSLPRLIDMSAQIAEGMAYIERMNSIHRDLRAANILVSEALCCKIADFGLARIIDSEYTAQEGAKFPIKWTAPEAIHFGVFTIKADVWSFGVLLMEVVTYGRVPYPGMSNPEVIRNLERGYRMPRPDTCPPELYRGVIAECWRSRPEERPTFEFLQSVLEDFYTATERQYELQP

HCK = target: T5, HCK (Homo sapiens, UniProt P08631); test: as above; type: biochemical; details: 1 uM compound, read-out: % residual activity class (FIG. 3)
T5 construct: purchased ProQinase

PDGFR-alpha = target: T6, PDGFR-alpha (Homo sapiens, UniProt P16234); test: as above; type: biochemical; details: read-out: % residual activity class (FIG. 3)
T6 construct: purchased ProQinase

SIK3 = target: T7, SIK3 (Homo sapiens, UniProt Q9Y2K2); test: as above; type: biochemical; details: read-out: % residual activity class (FIG. 3)
T7 construct: purchased ProQinase

EPHA3 = target: T8, EPHA3 (Homo sapiens, UniProt P29320); test: as above; type: biochemical
T8 construct: purchased ProQinase
T8 sequence (P29320 21-983): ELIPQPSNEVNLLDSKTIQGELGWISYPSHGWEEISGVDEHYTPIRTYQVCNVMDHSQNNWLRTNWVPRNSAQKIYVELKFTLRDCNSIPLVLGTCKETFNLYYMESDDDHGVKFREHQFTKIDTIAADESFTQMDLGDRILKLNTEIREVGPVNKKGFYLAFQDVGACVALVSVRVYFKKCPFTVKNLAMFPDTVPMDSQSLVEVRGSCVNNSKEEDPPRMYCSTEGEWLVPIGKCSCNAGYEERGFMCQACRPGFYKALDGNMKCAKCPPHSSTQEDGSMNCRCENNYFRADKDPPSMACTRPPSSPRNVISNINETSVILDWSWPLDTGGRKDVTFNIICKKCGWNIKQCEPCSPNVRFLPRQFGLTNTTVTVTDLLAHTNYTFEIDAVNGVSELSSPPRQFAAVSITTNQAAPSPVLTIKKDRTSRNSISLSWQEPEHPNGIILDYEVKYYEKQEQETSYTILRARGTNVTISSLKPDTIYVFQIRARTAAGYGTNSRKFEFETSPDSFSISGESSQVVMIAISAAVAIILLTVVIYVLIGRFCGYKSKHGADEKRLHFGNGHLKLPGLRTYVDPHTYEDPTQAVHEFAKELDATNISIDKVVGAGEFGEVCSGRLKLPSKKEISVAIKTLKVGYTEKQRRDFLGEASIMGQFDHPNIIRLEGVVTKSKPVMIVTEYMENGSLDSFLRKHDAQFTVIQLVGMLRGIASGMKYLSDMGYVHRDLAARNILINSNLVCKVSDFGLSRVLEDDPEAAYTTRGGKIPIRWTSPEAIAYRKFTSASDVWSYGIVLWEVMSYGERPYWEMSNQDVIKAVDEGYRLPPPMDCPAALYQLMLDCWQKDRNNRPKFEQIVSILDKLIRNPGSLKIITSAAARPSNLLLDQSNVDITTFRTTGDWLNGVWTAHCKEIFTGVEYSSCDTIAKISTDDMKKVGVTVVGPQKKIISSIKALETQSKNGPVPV

BMPR1A = target: T9, BMPR1A (Homo sapiens, UniProt P36894); test: as above; type: biochemical
T9 construct: purchased ProQinase, Freiburg, Germany (Kinase Profiler panel)

ACV-RL1 = target: T10, ACV-RL1 (Homo sapiens, UniProt P37023); test: as above; type: biochemical; details: 1 uM compound, read-out: % residual activity class (FIG. 3)
T10 construct: purchased ProQinase

ABL2 = target: T11, ABL2 (Homo sapiens, UniProt P42684); test: as above; type: biochemical; details: 1 uM compound, read-out: % residual activity class (FIG. 3)
T11 construct: purchased ProQinase

MDCK-wild type cells = details: dog
FYN = FYN (Homo sapiens, UniProt P06241); test: single-point (1 uM) inhibition assay (ProQinase Kinase Profiler); details: read-out: % residual activity class (FIG. 3)
SIK1 = target: T12, SIK1 (Homo sapiens, UniProt P57059); test: as above; type: biochemical; details: read-out: % residual activity class (FIG. 3)
T12 construct: purchased ProQinase

ZAK = target: T13, ZAK (Homo sapiens, UniProt Q9NYL2); test: as above; type: biochemical; details: 1 uM compound, read-out: % residual activity class (FIG. 3)
T13 construct: purchased ProQinase

ACK1 = target: T14, ACK1 (Homo sapiens, UniProt Q07912); test: as above; type: biochemical; details: 1 uM compound, read-out: % residual activity class (FIG. 3)
T14 construct: purchased ProQinase

TXK = target: T15, TXK (Homo sapiens, UniProt P42681); test: as above; type: biochemical; details: 1 uM compound, read-out: % residual activity class (FIG. 3)
T15 construct: purchased ProQinase

NLK = target: T16, NLK (Homo sapiens, UniProt Q9UBE8); test: as above; type: biochemical; details: 1 uM compound, read-out: % residual activity class (FIG. 3)
T16 construct: purchased ProQinase

EPHB1 = target: T17, EPHB1 (Homo sapiens, UniProt P54762); test: as above; type: biochemical
T17 construct: purchased ProQinase
T17 sequence (P54762 18-984): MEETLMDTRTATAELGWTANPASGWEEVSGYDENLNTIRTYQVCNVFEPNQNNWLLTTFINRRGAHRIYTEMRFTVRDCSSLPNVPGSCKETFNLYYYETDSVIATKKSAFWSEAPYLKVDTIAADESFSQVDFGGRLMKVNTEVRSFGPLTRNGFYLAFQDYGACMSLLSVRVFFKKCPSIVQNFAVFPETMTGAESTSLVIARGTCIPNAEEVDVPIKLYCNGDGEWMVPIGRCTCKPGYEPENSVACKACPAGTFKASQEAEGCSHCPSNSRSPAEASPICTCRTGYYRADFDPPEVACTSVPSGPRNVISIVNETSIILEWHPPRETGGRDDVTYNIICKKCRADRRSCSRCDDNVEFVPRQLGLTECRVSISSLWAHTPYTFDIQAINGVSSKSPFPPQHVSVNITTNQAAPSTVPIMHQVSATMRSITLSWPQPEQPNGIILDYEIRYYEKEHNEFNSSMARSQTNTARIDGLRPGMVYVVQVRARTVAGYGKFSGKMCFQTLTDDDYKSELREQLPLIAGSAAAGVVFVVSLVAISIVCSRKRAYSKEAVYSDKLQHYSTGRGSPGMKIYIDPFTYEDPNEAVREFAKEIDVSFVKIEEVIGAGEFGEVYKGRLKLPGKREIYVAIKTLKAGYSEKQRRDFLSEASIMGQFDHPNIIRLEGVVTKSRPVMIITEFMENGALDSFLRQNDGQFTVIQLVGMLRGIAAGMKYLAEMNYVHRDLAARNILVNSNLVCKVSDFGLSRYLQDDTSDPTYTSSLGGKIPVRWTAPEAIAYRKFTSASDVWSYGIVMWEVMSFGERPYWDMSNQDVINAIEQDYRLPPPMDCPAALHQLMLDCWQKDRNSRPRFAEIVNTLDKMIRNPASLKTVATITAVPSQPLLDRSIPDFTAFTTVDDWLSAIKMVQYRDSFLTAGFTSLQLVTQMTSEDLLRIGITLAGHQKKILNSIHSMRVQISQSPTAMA

MAP4K5 = target: T18, MAP4K5 (Homo sapiens, UniProt Q9Y4K4); test: as above; type: biochemical; details: read-out: % residual activity class (FIG. 3)
T18 construct: purchased ProQinase

ACV-R1B = target: T19, ACV-R1B (Homo sapiens, UniProt P36896); test: as above; type: biochemical; details: read-out: % residual activity class (FIG. 3)
T19 construct: purchased ProQinase

p38-alpha = target: T20, p38-alpha (Homo sapiens, UniProt Q16539); test: as above; type: biochemical; details: read-out: % residual activity class (FIG. 3)
T20 construct: purchased ProQinase

TEC = target: T21, TEC (Homo sapiens, UniProt P42680); test: as above; type: biochemical; details: 1 uM compound, read-out: % residual activity class (FIG. 3)
T21 construct: purchased ProQinase

MDCK-MDR1 cells = details: dog
SRMS = target: T22, SRMS (Homo sapiens, UniProt Q9H3Y6); test: single-point (1 uM) inhibition assay (ProQinase Kinase Profiler); type: biochemical; details: 1 uM compound, read-out: % residual activity class (FIG. 3)
T22 construct: purchased ProQinase
T22 sequence (Q9H3Y6 whole entry): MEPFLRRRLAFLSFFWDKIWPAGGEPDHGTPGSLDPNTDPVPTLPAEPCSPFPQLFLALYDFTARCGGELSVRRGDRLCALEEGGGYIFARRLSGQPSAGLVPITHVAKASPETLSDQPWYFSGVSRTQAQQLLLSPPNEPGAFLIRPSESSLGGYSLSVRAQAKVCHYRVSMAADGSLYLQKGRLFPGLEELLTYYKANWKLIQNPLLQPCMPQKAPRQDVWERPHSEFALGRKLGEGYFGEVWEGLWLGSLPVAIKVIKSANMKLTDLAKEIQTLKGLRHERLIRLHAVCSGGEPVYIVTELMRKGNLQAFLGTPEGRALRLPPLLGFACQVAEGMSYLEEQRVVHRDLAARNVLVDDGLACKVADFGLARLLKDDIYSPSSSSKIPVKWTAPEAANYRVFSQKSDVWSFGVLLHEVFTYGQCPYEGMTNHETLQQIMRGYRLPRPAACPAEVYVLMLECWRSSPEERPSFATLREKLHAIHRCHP

LYN = target: T23, LYN (Homo sapiens, UniProt P07948); test: as above; type: biochemical; details: 1 uM compound, read-out: % residual activity class (FIG. 3)
T23 construct: purchased ProQinase

CSK = target: T24, CSK (Homo sapiens, UniProt P41240); test: as above; type: biochemical; details: 1 uM compound, read-out: % residual activity class (FIG. 3)
T24 construct: purchased ProQinase

EPHB2 = target: T25, EPHB2 (Homo sapiens, UniProt P29323); test: as above; type: biochemical; details: read-out: % residual activity class (FIG. 3)
T25 construct: purchased ProQinase

DDR2 = target: T26, DDR2 (Homo sapiens, UniProt Q16832); test: as above; type: biochemical; details: 1 uM compound, read-out: % residual activity class (FIG. 3)
T26 construct: purchased ProQinase, Freiburg, Germany (Kinase Profiler panel)

RET = target: T27, RET (Homo sapiens, UniProt P07949); test: as above; type: biochemical
T27 construct: purchased ProQinase, Freiburg, Germany (Kinase Profiler panel)
T27 sequence (P07949 29-1114): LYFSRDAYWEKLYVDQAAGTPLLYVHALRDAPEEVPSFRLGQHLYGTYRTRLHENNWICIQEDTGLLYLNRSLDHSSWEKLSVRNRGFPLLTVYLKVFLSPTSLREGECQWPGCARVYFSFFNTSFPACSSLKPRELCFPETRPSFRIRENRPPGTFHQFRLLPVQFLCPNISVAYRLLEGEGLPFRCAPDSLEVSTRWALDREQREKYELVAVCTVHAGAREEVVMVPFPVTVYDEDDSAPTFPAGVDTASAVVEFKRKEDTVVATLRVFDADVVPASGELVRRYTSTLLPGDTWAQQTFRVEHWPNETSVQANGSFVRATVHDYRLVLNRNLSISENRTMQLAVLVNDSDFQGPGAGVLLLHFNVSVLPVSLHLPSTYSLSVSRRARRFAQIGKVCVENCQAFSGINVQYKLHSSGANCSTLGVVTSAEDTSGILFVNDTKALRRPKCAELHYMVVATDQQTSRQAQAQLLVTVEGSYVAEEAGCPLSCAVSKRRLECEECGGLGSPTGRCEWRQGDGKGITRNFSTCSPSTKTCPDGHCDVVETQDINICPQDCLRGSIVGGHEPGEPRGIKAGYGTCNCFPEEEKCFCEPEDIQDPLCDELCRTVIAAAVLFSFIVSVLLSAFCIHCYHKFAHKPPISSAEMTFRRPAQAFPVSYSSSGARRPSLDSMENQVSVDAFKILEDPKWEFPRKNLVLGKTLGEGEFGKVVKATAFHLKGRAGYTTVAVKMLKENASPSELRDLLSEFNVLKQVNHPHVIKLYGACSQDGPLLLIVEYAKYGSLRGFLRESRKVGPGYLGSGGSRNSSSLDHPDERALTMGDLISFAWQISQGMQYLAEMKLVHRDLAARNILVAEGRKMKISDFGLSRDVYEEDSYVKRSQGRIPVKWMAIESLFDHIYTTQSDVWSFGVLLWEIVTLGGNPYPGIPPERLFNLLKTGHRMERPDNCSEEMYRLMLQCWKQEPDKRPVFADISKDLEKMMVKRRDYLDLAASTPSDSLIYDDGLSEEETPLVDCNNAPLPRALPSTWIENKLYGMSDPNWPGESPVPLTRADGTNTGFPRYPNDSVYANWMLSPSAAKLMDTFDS

RIPK2 = target: T28, RIPK2 (Homo sapiens, UniProt O43353); test: as above; type: biochemical; details: 1 uM compound, read-out: % residual activity class (FIG. 3)
T28 construct: purchased ProQinase

ACV-R1 = target: T29, ACV-R1 (Homo sapiens, UniProt Q04771); test: as above; type: biochemical; details: read-out: % residual activity class (FIG. 3)
T29 construct: purchased ProQinase

SIK2 = target: T30, SIK2 (Homo sapiens, UniProt Q9H0K1); test: as above; type: biochemical; details: read-out: % residual activity class (FIG. 3)
T30 construct: purchased ProQinase

PDGFR-beta = target: T31, PDGFR-beta (Homo sapiens, UniProt P09619); test: biochemical
T31 construct: purchased ProQinase
T31 sequence (P09619 33-1106): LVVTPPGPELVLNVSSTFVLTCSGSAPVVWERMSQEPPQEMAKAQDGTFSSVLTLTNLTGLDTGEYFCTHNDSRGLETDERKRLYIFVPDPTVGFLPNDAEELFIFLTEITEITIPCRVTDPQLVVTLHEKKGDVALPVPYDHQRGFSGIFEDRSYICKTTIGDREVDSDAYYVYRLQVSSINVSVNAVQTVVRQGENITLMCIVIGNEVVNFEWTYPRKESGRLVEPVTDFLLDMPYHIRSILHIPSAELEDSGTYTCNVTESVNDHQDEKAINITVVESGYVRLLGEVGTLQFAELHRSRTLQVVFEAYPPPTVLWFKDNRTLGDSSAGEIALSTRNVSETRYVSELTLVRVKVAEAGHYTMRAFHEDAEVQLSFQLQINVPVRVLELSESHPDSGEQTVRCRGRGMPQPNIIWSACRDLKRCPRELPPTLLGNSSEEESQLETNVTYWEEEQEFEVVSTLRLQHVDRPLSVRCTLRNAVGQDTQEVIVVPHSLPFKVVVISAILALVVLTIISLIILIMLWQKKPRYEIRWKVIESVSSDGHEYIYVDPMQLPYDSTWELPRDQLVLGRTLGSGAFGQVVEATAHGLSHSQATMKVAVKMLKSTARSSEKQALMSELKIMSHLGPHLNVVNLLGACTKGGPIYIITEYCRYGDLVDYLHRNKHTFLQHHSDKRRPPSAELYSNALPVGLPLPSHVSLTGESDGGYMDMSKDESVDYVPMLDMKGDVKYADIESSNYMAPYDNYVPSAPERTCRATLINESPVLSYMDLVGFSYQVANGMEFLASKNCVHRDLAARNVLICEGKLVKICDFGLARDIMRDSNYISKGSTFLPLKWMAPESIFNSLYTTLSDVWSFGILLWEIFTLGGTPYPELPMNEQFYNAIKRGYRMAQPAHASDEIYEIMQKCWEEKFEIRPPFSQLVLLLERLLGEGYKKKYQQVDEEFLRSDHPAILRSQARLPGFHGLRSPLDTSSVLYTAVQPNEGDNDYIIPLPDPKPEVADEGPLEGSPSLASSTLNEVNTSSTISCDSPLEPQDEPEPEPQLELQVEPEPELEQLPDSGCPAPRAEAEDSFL

EPHB3 = target: T32, EPHB3 (Homo sapiens, UniProt P54753); test: single-point (1 uM) inhibition assay (ProQinase Kinase Profiler); type: biochemical
T32 construct: purchased ProQinase

SRC = target: T33, SRC (Homo sapiens, UniProt P12931); test: biochemical; details: 1 uM compound, read-out: % residual activity class (FIG. 3)
T33 construct: purchased ProQinase

FLT3 = target: T34, FLT3 (Homo sapiens, UniProt P36888); test: single-point (1 uM) inhibition assay (ProQinase Kinase Profiler); type: biochemical; details: read-out: % residual activity class (FIG. 3)
T34 construct: purchased ProQinase

NIK = NIK (Homo sapiens, UniProt Q99558); test: biochemical; details: read-out: Residual activity (%) at 1 uM
EPHA4 = target: T35, EPHA4 (Homo sapiens, UniProt P54764); test: single-point (1 uM) inhibition assay (ProQinase Kinase Profiler); type: biochemical
T35 construct: purchased ProQinase

[1] = read-out: % residual activity class (FIG. 3)
[2] = read-out: Residual activity (%) at 1 uM
[3] = read-out: Residual activity (%) at 1 uM, RET
[4] = PDGFR-beta, 1 uM compound, read-out: % residual activity class (FIG. 3)

For Cc1nc(Nc2ncc(C(=O)Nc3c(C)cccc3Cl)s2)cc(N2CCN(CCO)CC2)n1 [Compound A8, N-(2-chloro-6-methylphenyl)-2-((6-(4-(2-hydroxyethyl)piperazin-1-yl)-2-methylpyrimidin-4-yl)amino)thiazole-5-carboxamide, reference compound], the remaining activity at 1 µM (FGR) was less than 25%, the remaining activity at 1 µM (FRK) was less than 25% and the remaining activity at 1 µM (JAK1 aa583-1154 wt; [1]) was 25 to 50%. It also gave a remaining activity at 1 µM (JAK1 aa583-1154 wt; [2]) of 41%, a remaining activity at 1 µM (BLK) of less than 25% and a remaining activity at 1 µM (HCK) of less than 25%. For the same compound, the remaining activity at 1 µM (PDGFR-alpha) was less than 25%, the remaining activity at 1 µM (SIK3; SIK3, 1 uM compound) was less than 25% and the remaining activity at 1 µM (EPHA3; EPHA3, 1 uM compound, read-out: % residual activity class (FIG. 3)) was less than 25%. For the same compound, the remaining activity at 1 µM (BMPR1A; BMPR1A, 1 uM compound, read-out: % residual activity class (FIG. 3)) was 25 to 50%, the remaining activity at 1 µM (BMPR1A; [2]) was 42% and the remaining activity at 1 µM (ACV-RL1) was less than 25%. For the same compound, the remaining activity at 1 µM (ABL2) was less than 25%, the “Mean Papp A > B” value (MDCK-wild type cells) was 21 and the remaining activity at 1 µM (FYN) was less than 25%. For the same compound, the remaining activity at 1 µM (SIK1; SIK1, 1 uM compound) was less than 25%, the remaining activity at 1 µM (ZAK) was less than 25% and the remaining activity at 1 µM (ACK1) was less than 25%. It also gave a remaining activity at 1 µM (TXK) of less than 25%, a remaining activity at 1 µM (NLK) of less than 25% and a remaining activity at 1 µM (EPHB1; [1]) of less than 25%. It also gave a remaining activity at 1 µM (MAP4K5; MAP4K5, 1 uM compound) of less than 25%, a remaining activity at 1 µM (ACV-R1B; ACV-R1B, 1 uM compound) of less than 25% and a remaining activity at 1 µM (p38-alpha; p38-alpha, 1 uM compound) of less than 25%. The remaining activity at 1 µM (TEC) was less than 25%, the “Mean Papp A > B” value (MDCK-MDR1 cells) was 2.4 and the remaining activity at 1 µM (SRMS) was less than 25%. The remaining activity at 1 µM (LYN) was less than 25%, the remaining activity at 1 µM (CSK) was less than 25% and the remaining activity at 1 µM (EPHB2; EPHB2, 1 uM compound) was less than 25%. The remaining activity at 1 µM (DDR2) was less than 25%, the “Residual activity (%) at 1 uM” value (RET; RET, 1 µM) was 39% and the remaining activity at 1 µM (RET; RET, 1 uM compound, read-out: % residual activity class (FIG. 3)) was 25 to 50%. It also gave a remaining activity at 1 µM (RET; [3]) of less than 40%, a remaining activity at 1 µM (RIPK2) of less than 25% and a remaining activity at 1 µM (ACV-R1; ACV-R1, 1 uM compound) of less than 25%. The remaining activity at 1 µM (SIK2; SIK2, 1 uM compound) was less than 25%, the remaining activity at 1 µM (PDGFR-beta; [4]) was less than 25% and the remaining activity at 1 µM (PDGFR-beta; [2]) was 2%.

Cc1nc(Nc2ncc(C(=O)Nc3c(Cl)ccnc3C)s2)cc(N2CCN(CCO)CC2)n1 [Compound B3, N-(4-chloro-2-methylpyridin-3-yl)-2-((6-(4-(2-hydroxyethyl)piperazin-1-yl)-2-methylpyrimidin-4-yl)amino)thiazole-5-carboxamide] showed a remaining activity at 1 µM (FGR) of less than 25%, a remaining activity at 1 µM (EPHB3; [1]) of less than 25% and a remaining activity at 1 µM (EPHB3; [2]) of 3%. For the same compound, the remaining activity at 1 µM (FRK) was less than 25%, the remaining activity at 1 µM (BLK) was less than 25% and the remaining activity at 1 µM (SRC) was less than 25%. The remaining activity at 1 µM (HCK) was less than 25%, the remaining activity at 1 µM (PDGFR-alpha) was less than 25% and the remaining activity at 1 µM (SIK3) was less than 25%. The remaining activity at 1 µM (EPHA3; [1]) was less than 25%, the remaining activity at 1 µM (EPHA3; [2]) was 0% and the remaining activity at 1 µM (ACV-RL1) was 25 to 50%. For the same compound, the remaining activity at 1 µM (ABL2) was less than 25%, the “Mean recovery B > A” value (MDCK-wild type cells) was 120% and the remaining activity at 1 µM (FYN) was less than 25%. For the same compound, the remaining activity at 1 µM (SIK1) was less than 25%, the remaining activity at 1 µM (ZAK) was less than 25% and the remaining activity at 1 µM (ACK1) was less than 25%. It also gave a remaining activity at 1 µM (TXK) of less than 25%, a remaining activity at 1 µM (NLK) of 25 to 50% and a remaining activity at 1 µM (EPHB1; [1]) of less than 25%. It also gave a remaining activity at 1 µM (EPHB1; [2]) of 0%, a remaining activity at 1 µM (MAP4K5) of 25 to 50% and a remaining activity at 1 µM (ACV-R1B) of 25 to 50%. For the same compound, the remaining activity at 1 µM (p38-alpha) was 25 to 50%, the remaining activity at 1 µM (FLT3) was 25 to 50% and the remaining activity at 1 µM (NIK) was 100%. For the same compound, the remaining activity at 1 µM (TEC) was less than 25%, the “Mean recovery A > B” value (MDCK-MDR1 cells) was 93% and the remaining activity at 1 µM (SRMS) was 25 to 50%. For the same compound, the remaining activity at 1 µM (LYN) was less than 25%, the remaining activity at 1 µM (CSK) was less than 25% and the remaining activity at 1 µM (EPHB2) was less than 25%. For the same compound, the remaining activity at 1 µM (DDR2) was less than 25%, the remaining activity at 1 µM (EPHA4; [1]) was less than 25% and the remaining activity at 1 µM (EPHA4; [2]) was 10%. For the same compound, the remaining activity at 1 µM (RET; [3]) was roughly 100%, the remaining activity at 1 µM (RIPK2) was less than 25% and the remaining activity at 1 µM (ACV-R1) was 25 to 50%. The remaining activity at 1 µM (SIK2) was less than 25%, the remaining activity at 1 µM (PDGFR-beta; [4]) was less than 25% and the remaining activity at 1 µM (PDGFR-beta; [2]) was 6%.
